The text below walks through data of US20160009693A1, “HERBICIDAL COMPOUNDS” (SYNGENTA LIMITED, priority 2013, published 2016).

What all share (assay type): in vivo
What all share (conditions): evaluated after 13 days

In assay [1] the test system is Amaranthus retoflexus (AMARE). Description: Herbicidal glasshouse test, pre-emergence, AMARE. In outline: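 Amaranthus retoflexus seeds were sown in pots of standard soil and kept one day in a glasshouse at 24/16° C. (day/night), 14 hours light and 65% humidity. They were then sprayed pre-emergence with the active ingredient in acetone/water (50:50) containing 0.5% Tween 20. Plants grew under the same conditions, watered twice daily, and percentage damage was scored after 13 days.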

Assay [2] concerns Amaranthus retoflexus (AMARE). Description: Herbicidal glasshouse test, post-emergence, AMARE. Put shortly:
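Amaranthus retoflexus (AMARE) seeds were sown in pots of standard soil and grown in a glasshouse at 24/16° C. day/night, 14 hours light and 65% humidity for 8 days. The plants were then sprayed post-emergence with an aqueous solution of the active ingredient in acetone/water (50:50) with 0.5% Tween 20. Damage was scored after 13 days.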

Assay [3] relates to Echinochloa crus-galli (ECHCG). Description: Herbicidal glasshouse test, pre-emergence, ECHCG. In outline: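 Echinochloa crus-galli seeds were sown in standard soil in pots and grown for one day in a glasshouse at 24/16° C. day/night, 14 hours light and 65% humidity. Pre-emergence spraying used an aqueous solution of the active ingredient in acetone/water (50:50) with 0.5% Tween 20. Damage was scored after 13 days on a five point scale.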

Assay [4] has as its system Alopecurus myosuroides (ALOMY). Description: Herbicidal glasshouse test, post-emergence, ALOMY.
In assay [5] the test system is Solanum nigrum (SOLNI). Description: Herbicidal glasshouse test, post-emergence, SOLNI.
For assay [6], the system named is Setaria faberi (SETFA). The assay is described as follows: Herbicidal glasshouse test, pre-emergence, SETFA.
Assay [7] deals with Ipomoea hederacea (IPOHE). The assay is described as follows: Herbicidal glasshouse test, post-emergence, IPOHE.
The subject of assay [8] is Solanum nigrum (SOLNI). The assay is described as follows: Herbicidal glasshouse test, pre-emergence, SOLNI. Put shortly:
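Seeds of Solanum nigrum were sown in pots of standard soil and kept one day in a glasshouse at 24/16° C. day/night, 14 hours light and 65% humidity. For the pre-emergence treatment they were then sprayed with an aqueous solution of the active ingredient formulated in acetone/water (50:50) containing 0.5% Tween 20. Plant damage was rated after 13 days.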

The subject of assay [9] is Ipomoea hederacea (IPOHE). The assay is described as follows: Herbicidal glasshouse test, pre-emergence, IPOHE.
Assay [10] concerns Alopecurus myosuroides (ALOMY). Description: Herbicidal glasshouse test, pre-emergence, ALOMY.
For assay [11], the system named is Echinochloa crus-galli (ECHCG). The assay is described as follows: Herbicidal glasshouse test, post-emergence, ECHCG. In outline: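 Echinochloa crus-galli (ECHCG) seeds were sown in standard soil in pots and grown for 8 days in a glasshouse at 24/16° C. day/night, 14 hours light and 65% humidity. The young plants were then sprayed post-emergence with the active ingredient in acetone / water (50:50) containing 0.5% Tween 20. Damage was scored after 13 days.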

In assay [12] the test system is Setaria faberi (SETFA). Description: Herbicidal glasshouse test, post-emergence, SETFA. Put shortly: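 Setaria faberi seeds were sown in standard soil in pots and grown for 8 days in a glasshouse at 24/16° C. day/night, 14 hours light and 65% humidity. The seedlings were then sprayed post-emergence with the active ingredient in acetone/water (50:50) containing 0.5% Tween 20. Afterwards they were kept under the same conditions, watered twice daily, and scored for percentage damage on a five point scale.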

Turning to `Cn1nnnc1NC(=O)c1nn(C)c(=O)n(Cc2ccc(C(F)F)cc2)c1=O` [Compound 1.086], in assay [1] (applied at 1000 g/h), the “PRE Application AMARE, percentage damage (five point scale)” value (from here on “PRE Application AMARE, percentage damage”) is 5 (5=80-100%). In addition, in assay [2] (applied at 1000 g/h), the “POST Application AMARE, percentage damage (five point scale)” value is recorded as 5 (5=80-100%). For the same molecule, the “PRE Application ECHCG, percentage damage (five point scale)” value (shortened to “PRE Application ECHCG, percentage damage”) in [3] (applied at 1000 g/h) is listed as 5 (5=80-100%). For the same molecule, the “POST Application ALOMY, percentage damage (five point scale)” value in assay [4] (applied at 1000 g/h) is reported as 5 (5=80-100%). Besides, in assay [5] (applied at 1000 g/h), the “POST Application SOLNI, percentage damage (five point scale)” value was 5 (5=80-100%). The “PRE Application SETFA, percentage damage (five point scale)” value (“PRE Application SETFA, percentage damage” below) in assay [6] (applied at 1000 g/h) was 2 (2=20-39%). The “POST Application IPOHE, percentage damage (five point scale)” value in [7] (applied at 1000 g/h) is 5 (5=80-100%). In addition, the “PRE Application SOLNI, percentage damage (five point scale)” value (from here on “PRE Application SOLNI, percentage damage”) in [8] (applied at 1000 g/h) was 5 (5=80-100%). Besides, the “PRE Application IPOHE, percentage damage (five point scale)” value (shortened to “PRE Application IPOHE, percentage damage”) in assay [9] (applied at 1000 g/h) is 5 (5=80-100%). The “PRE Application ALOMY, percentage damage (five point scale)” value (“PRE Application ALOMY, percentage damage” below) in assay [10] (applied at 1000 g/h) is on record as 5 (5=80-100%). In assay [11] (applied at 1000 g/h), the “POST Application ECHCG, percentage damage (five point scale)” value is recorded as 5 (5=80-100%). Further, the “POST Application SETFA, percentage damage (five point scale)” value in assay [12] (applied at 1000 g/h) is recorded as 2 (2=20-39%).

For the molecule `CC(C)CCn1nc(C(=O)Nc2nnnn2C)c(=O)n(-c2cccc(F)c2)c1=O` [Compound 1.013], the “PRE Application AMARE, percentage damage” value in [1] (applied at 1000 g/h) was 2 (2=20-39%). The “POST Application AMARE, percentage damage (five point scale)” value in assay [2] (applied at 1000 g/h) is listed as 2 (2=20-39%). The “PRE Application ECHCG, percentage damage” value in assay [3] (applied at 1000 g/h) is 1 (1=0-19%). For the same molecule, the “POST Application ALOMY, percentage damage (five point scale)” value in assay [4] (applied at 1000 g/h) was 5 (5=80-100%). In [5] (applied at 1000 g/h), the “POST Application SOLNI, percentage damage (five point scale)” value is 5 (5=80-100%). Besides, the “PRE Application SETFA, percentage damage” value in assay [6] (applied at 1000 g/h) is recorded as 1 (1=0-19%). Besides, the “POST Application IPOHE, percentage damage (five point scale)” value in assay [7] (applied at 1000 g/h) is 4 (4=60-79%). For the same molecule, the “PRE Application SOLNI, percentage damage” value in assay [8] (applied at 1000 g/h) was 3 (3=40-59%). For the same molecule, in assay [9] (applied at 1000 g/h), the “PRE Application IPOHE, percentage damage” value is listed as 2 (2=20-39%). The “PRE Application ALOMY, percentage damage” value in assay [10] (applied at 1000 g/h) is given as 1 (1=0-19%). The “POST Application ECHCG, percentage damage (five point scale)” value in assay [11] (applied at 1000 g/h) is recorded as 1 (1=0-19%). Moreover, the “POST Application SETFA, percentage damage (five point scale)” value in [12] (applied at 1000 g/h) is 3 (3=40-59%).

As to `C=C(C)Cn1c(=O)c(C(=O)Nc2nnnn2C)nn(C)c1=O` [Compound 1.091], the “PRE Application AMARE, percentage damage” value in [1] (applied at 250 g/ha) is on record as 5 (5=80-100%). For the same molecule, the “POST Application AMARE, percentage damage (five point scale)” value in assay [2] (applied at 250 g/ha) is 5 (5=80-100%). For the same molecule, the “PRE Application ECHCG, percentage damage” value in [3] (applied at 250 g/ha) is listed as 5 (5=80-100%). Further, in [4] (applied at 250 g/ha), the “POST Application ALOMY, percentage damage (five point scale)” value is 4 (4=60-79%). Further, the “POST Application SOLNI, percentage damage (five point scale)” value in assay [5] (applied at 250 g/ha) is recorded as 5 (5=80-100%). Besides, the “PRE Application SETFA, percentage damage” value in assay [6] (applied at 250 g/ha) was 4 (4=60-79%). The “POST Application IPOHE, percentage damage (five point scale)” value in assay [7] (applied at 250 g/ha) is 5 (5=80-100%). Also, the “PRE Application SOLNI, percentage damage” value in assay [8] (applied at 250 g/ha) is on record as 5 (5=80-100%). Also, the “PRE Application IPOHE, percentage damage” value in assay [9] (applied at 250 g/ha) is on record as 4 (4=60-79%). For the same molecule, the “PRE Application ALOMY, percentage damage” value in [10] (applied at 250 g/ha) was 4 (4=60-79%). For the same molecule, in assay [11] (applied at 250 g/ha), the “POST Application ECHCG, percentage damage (five point scale)” value is 5 (5=80-100%). In assay [12] (applied at 250 g/ha), the “POST Application SETFA, percentage damage (five point scale)” value is recorded as 4 (4=60-79%).

`Cn1nnnc1NC(=O)c1nn(C)c(=O)n(Cc2ccccc2)c1=O` [Compound 1.022]: the “PRE Application AMARE, percentage damage” value in [1] (applied at 1000 g/h) was 5 (5=80-100%). Also, the “POST Application AMARE, percentage damage (five point scale)” value in assay [2] (applied at 1000 g/h) was 5 (5=80-100%). Further, the “PRE Application ECHCG, percentage damage” value in assay [3] (applied at 1000 g/h) is on record as 5 (5=80-100%). Also, the “POST Application ALOMY, percentage damage (five point scale)” value in assay [4] (applied at 1000 g/h) is given as 4 (4=60-79%). The “POST Application SOLNI, percentage damage (five point scale)” value in assay [5] (applied at 1000 g/h) is given as 5 (5=80-100%). Besides, in assay [6] (applied at 1000 g/h), the “PRE Application SETFA, percentage damage” value is listed as 3 (3=40-59%). In addition, the “POST Application IPOHE, percentage damage (five point scale)” value in [7] (applied at 1000 g/h) is given as 5 (5=80-100%). Moreover, in assay [8] (applied at 1000 g/h), the “PRE Application SOLNI, percentage damage” value is 5 (5=80-100%). Moreover, in assay [9] (applied at 1000 g/h), the “PRE Application IPOHE, percentage damage” value is 4 (4=60-79%). Moreover, the “PRE Application ALOMY, percentage damage” value in assay [10] (applied at 1000 g/h) is listed as 5 (5=80-100%). In addition, the “POST Application ECHCG, percentage damage (five point scale)” value in [11] (applied at 1000 g/h) was 5 (5=80-100%). For the same molecule, in [12] (applied at 1000 g/h), the “POST Application SETFA, percentage damage (five point scale)” value is 4 (4=60-79%).
